Experimental data taken from US6703362B1, “Random peptides that bind to gastro-intestinal tract (GIT) transport receptors and related methods” (Cytogen Corporation, priority 1997, dated 2004).
Square brackets hold non-standard residues; d marks the D form. Peptide text beside a SMILES is read from it. * marks the point of attachment. Dansyl = CN(C)c1cccc2c(S(=O)(=O)*)cccc12

Tests used:
intestinal tissue = test: Preselected phage libraries, rat closed loop: absorption/internalization to intestinal tissue (hybridization autoradiograph); format: in vivo
[1] = Isoelectric points of synthetic peptides; format: physicochemical
[2] = system: P100 membrane fraction derived from Caco-2 cells; test: GST-PAX2 peptides relative binding to P100 fractions (ratio to GST-HAX42); details: 20 μg/ml GST-peptide; binding to plastic subtracted; GST-HAX42 = 1.00
Protocol: (§1) The peptides and proteins were analyzed by a dansylated peptide ELISA method in which 96 well plates were coated overnight at 4° C. with 100 μl/well coating protein (normally 100 μg/ml P100 membrane fraction) in 0.05M carbonate buffer pH9.6. Nonspecific binding was blocked using 200 μl/well, 2% Marvel/PBS for 2 hours at 37° C. prior to incubation with dansylated peptides. The plates were washed three times with PBS/0.05% Tween 20 and after each subsequent incubation step. […] A buffer blank control was included to ensure that background binding to plastic was not due to the antibodies used in the assay system. […] The plates were then incubated with an anti-mouse X-HRP conjugated antibody (Southern Biotech 1060-05) at a 1:10,000 dilution in blocking solution, 100 μl/well for 1 hour at room temperature. Plates were developed using 75 μl/well Bionostics TMB substrate and incubated for approximately 10 minutes. The developing reaction was stopped using Bionostics Red Stop solution (25 μl/well), and the optical density of the plates was read at 650nm.
After subtraction of the GST-peptide binding to plastic from P100 binding values, the binding of GST-PAX2 peptides were represented as a ratio of GST-HAX42 binding to P100, which was given the arbitrary value of 1.00. The following ratios were determined from binding to P100 of GST-peptides at a peptide concentration of 20 μg/ml. Bold denotes positive binding to the P100 membrane fraction.

fixed Caco-2 cells = test: Inhibition of GST-peptide fusion binding to fixed Caco-2 cells by synthetic peptides; details: peptide from 100 μg/ml serially diluted; GST fusion 10 μg
Text: Caco-2 cells were fixed, treated with phenylhydrazine and blocked as described above. […] GST-PAX2 binding was inhibited by ZElan032, ZElan033, and ZElan035.

[3] = Peptide stability in simulated intestinal fluid (SIF); format: in vitro ADME; details: for Rel. Stab.: rank, 1 = most stable to SIF; for remaining at 1 min, 1 mg/ml / remaining at 1 h, 1 mg/ml / remaining at 3 h, 1 mg/ml / remaining at 24 h, 1 mg/ml: simulated intestinal fluid (pancreatin), pH 7.5, 10,000 fold diluted SIF, 37° C.; for remaining at 1 min, 1 mg/ml: read-out: Percent Remaining at: 1 m; for remaining at 1 h, 1 mg/ml: read-out: Percent Remaining at: 1 h; for remaining at 3 h, 1 mg/ml: read-out: Percent Remaining at: 3 h; for remaining at 24 h, 1 mg/ml: read-out: Percent Remaining at: 24 h
Protocol: The relative stability for ZElanO3l, ZElanO53 and ZElan054 was determined in simulated intestinal fluid (SIF) SIF was made by dissolving 100 mg of pancreatin (Sigma cat#P-1625, lot# 122H0812)in 8.4 ml of phosphate stock solution, adjusting the pH to 7.5 with 0.2N NaOH and adjusting the volume to 10 ml with water.
Peptide (3.25 mg) was dissolved in 3.25 ml of 10,000 fold diluted SIF solution at 37° C. Aliquots (0.7 ml) of the digestion solution were then withdrawn at <1 min, 1 h, 3 h, and 21 h or 24 h. The samples were quickly passed through a syringe filter (Millipore Millex-GV 0.22 μm, part# SLGV025LS, lot# H2BM95250) and 300 μL of the filtered solution was immediately injected onto a Hewlett-Packard HPLC system equipped with a C-8 column (Applied Biosystems column and guard column: column-p/n 0711-0023 Spheri-5 ODS 5 μm, 220×4.6 mm). The products were eluted at 1.5 ml/min using an acetonitrile-water gradient. The major fluorescent peaks were collected, lyopholized and identified by MS analysis.

[4] = system: fixed Caco-2 or C2BBe1 cells; test: ELISA of GST fusion proteins on fixed Caco-2 or C2BBe1 cells; format: binding
Protocol: Fixed Caco-2, C2BBe1, and A431 cell plates were prepared by growing cells on tissue culture treated microtiter plates. When cells were confluent, plates were fixed with 10% formaldehyde, washed twice with PBS and stored with 0.5%BSA-PBS at −20° C. […] The standard ELISA procedure was followed at this point.
The standard ELISA procedure was modified as follows. GST proteins were diluted to an appropriate concentration in PBS containing lkBSA and 0.05% Tween20 (1%BPT), titered and incubated one hour at room temperature. Following five washes an anti-GST monoclonal antibody was added (Sigma, St. Louis Clone GST-2 diluted 1:10,000 in 1%BPT) and incubated one hour. After five more washes goat anti-mouse IgG2b-HRP was added (Southern Biotechnology Associates Inc., Birmingham, Ala., diluted 1:4000 in 1%BPT) and incubated one hour. After five washes plates were developed with TMB peroxidase substrate (Kirkegard and Perry, Gaithersburg, Md.). All data is presented with background binding subtracted.

[5] = system: P100 membrane fractions derived from Caco-2 cells; test: Dansylated peptide ELISA: relative binding of PAX2 and HAX42 peptides to P100 (ratio to ZElan021); details: PAX2 peptides, ratio to ZElan021 = 1.00
Protocol: as §1

Molecule: STPPSREAYSRPYSVDSDSDTNAKHSSHNRRLRTRSRPN [PAX2]
- binding to the intestine / found in the intestine samples (intestinal tissue; hPEPT1 pool of phages): not found in the intestine samples
- pI [1]: 11.26

Molecule: gst-TNAKHSSHN [GST-113]
- Value (binding to P100 as ratio of GST-HAX42 binding) [2]: 0.26

Molecule: gst-RRLRTRSRPN [GST-115]
- Value (binding to P100 as ratio of GST-HAX42 binding) [2]: 0.36

Molecule: RVGQCTDSDVRRPWARSCAHQGCGAGTRNSHGCITRPLRQASAH [Phage SNi10]
- found in the intestine samples or fractions (intestinal tissue; hSI pool of phages): found in the intestine samples or fractions

Molecule: gst-STPPSREAYSRPYSVDSDSD [GST-104]
- Value (binding to P100 as ratio of GST-HAX42 binding) [2]: 0.01

Molecule: C[C@H](NC(=O)[C@H](CC(N)=O)NC(=O)[C@H](CCC(=O)O)NC(=O)[C@@H](N)CCCCNS(=O)(=O)c1cccc2c(N(C)C)cccc12)C(=O)N[C@@H](CC(N)=O)C(=O)N[C@H](C(=O)N[C@@H](CCCNC(=N)N)C(=O)N[C@@H](CCCCN)C(=O)N[C@@H](CO)C(=O)N[C@@H](CO)C(=O)N[C@@H](CCCNC(=N)N)C(=O)N[C@@H](CO)C(=O)N[C@@H](CC(N)=O)C(=O)N1CCC[C@H]1C(=O)N[C@@H](CCCNC(=N)N)C(=O)NCC(=O)N[C@@H](CCCNC(=N)N)C(=O)N[C@@H](CCCNC(=N)N)C(=O)N[C@@H](Cc1c[nH]cn1)C(=O)N1CCC[C@H]1C(=O)NCC(N)=O)[C@@H](C)O [ZElan028] (H-K(Dansyl)ENANTRKSSRSNPRGRRHPG-NH2)
- inhibition of GST-P31 binding (fixed Caco-2 cells): inhibited

Molecule: H-K(Dansyl)SRANTDGRKSRYSSPRRNSSTEPRLSPNSVHARYPSTDHD-NH2 [ZElan038, reference compound]
- inhibition of GST-HAX42 binding (fixed Caco-2 cells): inhibited

Molecule: gst-SRPYSVDSDSDTNAKHSSHNR [GST-105]
- Value (binding to P100 as ratio of GST-HAX42 binding) [2]: −0.08

Molecule: H-K(Dansyl)SEANLDGRKSRYSSPRRNSSTRPRTSPNSVHARYPSTDHD-NH2 [ZElan026, reference compound]
- inhibition of GST-HAX42 binding (fixed Caco-2 cells): inhibited

Molecule: C[C@@H](O)[C@H](NC(=O)[C@@H](N)CCCCNS(=O)(=O)c1cccc2c(N(C)C)cccc12)C(=O)N[C@@H](CCCNC(=N)N)C(=O)N[C@@H](CCCCN)C(=O)N[C@@H](CO)C(=O)N[C@@H](CO)C(=O)N[C@@H](CCCNC(=N)N)C(=O)N[C@@H](CO)C(=O)N[C@@H](CC(N)=O)C(=O)N1CCC[C@H]1C(=O)N[C@@H](CCCNC(=N)N)C(=O)NCC(=O)N[C@@H](CCCNC(=N)N)C(=O)N[C@@H](CCCNC(=N)N)C(=O)N[C@@H](Cc1c[nH]cn1)C(=O)N1CCC[C@H]1C(=O)NCC(N)=O [ZElan031] (H-K(Dansyl)TRKSSRSNPRGRRHPG-NH2)
- Rel. Stab. [3]: 3
- remaining at 1 min, 1 mg/ml [3]: 100%
- remaining at 1 h, 1 mg/ml [3]: 38.7%
- remaining at 3 h, 1 mg/ml [3]: 0%
- remaining at 24 h, 1 mg/ml [3]: 0%
- inhibition of GST-P31 binding (fixed Caco-2 cells): inhibited

Molecule: C[C@@H](O)[C@H](NC(=O)[C@@H](N)CCCCNS(=O)(=O)c1cccc2c(N(C)C)cccc12)C(=O)N[C@@H](CCCNC(=N)N)C(=O)N[C@@H](CCCCN)C(=O)N[C@@H](CO)C(=O)N[C@@H](CO)C(=O)N[C@H](CCCNC(=N)N)C(=O)N[C@@H](CO)C(=O)N[C@@H](CC(N)=O)C(=O)N1CCC[C@H]1C(=O)N[C@@H](CCCNC(=N)N)C(=O)NCC(=O)N[C@H](CCCNC(=N)N)C(=O)N[C@@H](CCCNC(=N)N)C(=O)N[C@@H](Cc1c[nH]cn1)C(=O)N1CCC[C@H]1C(=O)NCC(N)=O [ZElan054, H2N—K(dns)TRKSSrSNPRGrRHPG—CONH2] (H-K(Dansyl)TRKSS[dR]SNPRG[dR]RHPG-NH2)
- Rel. Stab. [3]: 2
- remaining at 1 min, 1 mg/ml [3]: 97.4%
- remaining at 1 h, 1 mg/ml [3]: 58.2%
- remaining at 3 h, 1 mg/ml [3]: 11.6%
- remaining at 24 h, 1 mg/ml [3]: 2.7%
- inhibition of GST-P31 binding (fixed Caco-2 cells): inhibited

Molecule: gst-RGSTGTAGGERSGVLNLHTRDNASGSGFKPWYPSNRGHK [GST-5PAX5]
- binding to fixed Caco-2 or C2BBe1 cells relative to GST control [4]: weak to moderate binding

Molecule: CC(C)C[C@H](NC(=O)[C@H](CCCNC(=N)N)NC(=O)[C@H](CCCNC(=N)N)NC(=O)[C@H](CC(N)=O)NC(=O)[C@H](Cc1c[nH]cn1)NC(=O)[C@H](CO)NC(=O)[C@H](CO)NC(=O)[C@H](Cc1c[nH]cn1)NC(=O)[C@H](CCCCN)NC(=O)[C@H](C)NC(=O)[C@H](CC(N)=O)NC(=O)[C@@H](NC(=O)[C@@H](N)CCCCNS(=O)(=O)c1cccc2c(N(C)C)cccc12)[C@@H](C)O)C(=O)N[C@@H](CCCNC(=N)N)C(=O)N[C@H](C(=O)N[C@@H](CCCNC(=N)N)C(N)=O)[C@@H](C)O [ZElan033] (H-K(Dansyl)TNAKHSSHNRRLRTR-NH2)
- Binding value at 20 μg/ml ([5]; first 20 μg/ml column): 0.35
- Binding value at 50 μg/ml ([5]; first 50 μg/ml column): 0.80
- Binding value at 20 μg/ml ([5]; second 20 μg/ml column): 1.57
- Binding value at 50 μg/ml ([5]; second 50 μg/ml column): 0.66
- inhibition of GST-PAX2 binding (fixed Caco-2 cells): inhibited

Molecule: gst-SPCGGGSWGRFMQGGLFGGRTDGCGAHRNRTSASLEPPSSDY [GST-SNi34]
- binding to fixed Caco-2 or C2BBe1 cells relative to GST control [4]: bound fixed Caco-2 or C2BBe1 cells

Molecule: CC(C)C[C@H](NC(=O)[C@H](CCCNC(=N)N)NC(=O)[C@H](CCCNC(=N)N)NC(=O)[C@H](CC(N)=O)NC(=O)[C@H](Cc1c[nH]cn1)NC(=O)[C@H](CO)NC(=O)[C@H](CO)NC(=O)[C@H](Cc1c[nH]cn1)NC(=O)[C@H](CCCCN)NC(=O)[C@H](C)NC(=O)[C@H](CC(N)=O)NC(=O)[C@@H](NC(=O)[C@@H](N)CCCCNS(=O)(=O)c1cccc2c(N(C)C)cccc12)[C@@H](C)O)C(=O)N[C@@H](CCCNC(=N)N)C(=O)N[C@H](C(=O)N[C@@H](CCCNC(=N)N)C(=O)N[C@@H](CO)C(=O)N[C@@H](CCCNC(=N)N)C(=O)N1CCC[C@H]1C(=O)N[C@@H](CC(N)=O)C(N)=O)[C@@H](C)O [ZElan032] (H-K(Dansyl)TNAKHSSHNRRLRTRSRPN-NH2)
- Binding value at 20 μg/ml ([5]; first 20 μg/ml column): 1.43
- Binding value at 50 μg/ml ([5]; first 50 μg/ml column): 0.95
- Binding value at 20 μg/ml ([5]; second 20 μg/ml column): 2.87
- Binding value at 50 μg/ml ([5]; second 50 μg/ml column): 1.06
- inhibition of GST-PAX2 binding (fixed Caco-2 cells): inhibited

Molecule: gst-SSHNRRLRTR [GST-114]
- Value (binding to P100 as ratio of GST-HAX42 binding) [2]: 0.17

Molecule: CC(C)C[C@H](NC(=O)[C@H](CCCNC(=N)N)NC(=O)[C@H](CCCNC(=N)N)NC(=O)[C@H](CC(N)=O)NC(=O)[C@H](Cc1c[nH]cn1)NC(=O)[C@H](CO)NC(=O)[C@H](CO)NC(=O)[C@@H](N)CCCCNS(=O)(=O)c1cccc2c(N(C)C)cccc12)C(=O)N[C@@H](CCCNC(=N)N)C(=O)N[C@H](C(=O)N[C@@H](CCCNC(=N)N)C(N)=O)[C@@H](C)O [ZElan035] (H-K(Dansyl)SSHNRRLRTR-NH2)
- Binding value at 20 μg/ml ([5]; first 20 μg/ml column): 0.12
- Binding value at 50 μg/ml ([5]; first 50 μg/ml column): 0.81
- Binding value at 20 μg/ml ([5]; second 20 μg/ml column): 0.43
- Binding value at 50 μg/ml ([5]; second 50 μg/ml column): 0.77
- inhibition of GST-PAX2 binding (fixed Caco-2 cells): inhibited
